Target: Beta-3 Adrenergic Receptor (Homo sapiens (Human), UniProt P13945)
Experiment: Homogeneous Time-Resolved Fluorescence (HTRF) cAMP antagonist assay, IC50 determination
Format: cell-based
Details: CHO-K1 cells stably expressing recombinant receptor, isoproterenol at EC90
Procedure, shortened: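 Antagonist mode: isoproterenol at its predetermined EC90 added after compound to recombinant CHO-K1 cells in IBMX-containing PBS, 1 h, room temperature. Compounds tested as 5-fold, 10-point dilutions, top final typically 10 or 100 μM. HTRF signal converted to cAMP via standard curve, giving IC50.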

Chain of Beta-3 Adrenergic Receptor (P13945 whole entry, species assumed): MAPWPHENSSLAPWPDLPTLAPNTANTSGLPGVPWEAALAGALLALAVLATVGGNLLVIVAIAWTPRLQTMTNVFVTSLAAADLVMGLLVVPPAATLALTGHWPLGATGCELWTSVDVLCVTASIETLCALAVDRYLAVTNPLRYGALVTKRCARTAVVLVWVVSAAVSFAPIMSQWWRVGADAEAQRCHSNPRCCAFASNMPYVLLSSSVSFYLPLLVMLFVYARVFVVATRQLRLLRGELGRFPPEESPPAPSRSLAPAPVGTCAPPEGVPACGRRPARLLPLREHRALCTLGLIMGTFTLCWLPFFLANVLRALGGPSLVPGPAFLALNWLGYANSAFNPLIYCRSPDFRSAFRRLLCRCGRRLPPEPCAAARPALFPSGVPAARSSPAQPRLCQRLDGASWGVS

| IC50 [nM] | SMILES |
| --- | --- |
| 15.7 | CNS(=O)(=O)c1cccc(OC[C@@H](O)CNC2COC3(CCN(S(=O)(=O)c4sc(-c5ccccc5)nc4C)CC3)C2)c1 (stereo partly drawn) [Compound 186, 3-((2S)-2-hydroxy-3-(8-(4-methyl-2-phenylthiazol-5-ylsulfonyl)-1-oxa-8-azaspiro[4.5]decan-3-ylamino)propoxy)-N-methylbenzenesulfonamide] |
| 7.72 | CNS(=O)(=O)c1cccc(OC[C@@H](O)CNC2COC3(CCN(S(=O)(=O)c4ccc(-c5ccccc5)s4)CC3)C2)c1 (stereo partly drawn) [Compound 187, 3-((2S)-2-hydroxy-3-(8-(5-phenylthiophen-2-ylsulfonyl)-1-oxa-8-azaspiro[4.5]decan-3-ylamino)propoxy)-N-methylbenzenesulfonamide] |
| 18.1 | CNS(=O)(=O)c1cccc(OC[C@@H](O)CNC2COC3(CCN(S(=O)(=O)c4c(C)noc4C)CC3)C2)c1 (stereo partly drawn) [Compound 188, 3-((2S)-3-(8-(3,5-dimethylisoxazol-4-ylsulfonyl)-1-oxa-8-azaspiro[4.5]decan-3-ylamino)-2-hydroxypropoxy)-N-methylbenzenesulfonamide] |
| 18 | CNS(=O)(=O)c1cccc(OC[C@@H](O)CNC2COC3(CCN(S(=O)(=O)c4cc(S(=O)(=O)c5ccccc5)cs4)CC3)C2)c1 (stereo partly drawn) [Compound 190, 3-((2S)-2-hydroxy-3-(8-(4-(phenylsulfonyl)thiophen-2-ylsulfonyl)-1-oxa-8-azaspiro[4.5]decan-3-ylamino)propoxy)-N-methylbenzenesulfonamide] |
| 39.7 | CNS(=O)(=O)c1cccc(OC[C@@H](O)CNC2COC3(CCN(S(=O)(=O)c4ccsc4)CC3)C2)c1 (stereo partly drawn) [Compound 196, 3-((2S)-2-hydroxy-3-(8-(thiophen-3-ylsulfonyl)-1-oxa-8-azaspiro[4.5]decan-3-ylamino)propoxy)-N-methylbenzenesulfonamide] |
| 12.8 | CNS(=O)(=O)c1cccc(OC[C@@H](O)CNC2COC3(CCN(S(=O)(=O)c4c(Cl)ccc5nsnc45)CC3)C2)c1 (stereo partly drawn) [Compound 197, 3-((2S)-3-(8-(5-chlorobenzo[c][1,2,5]thiadiazol-4-ylsulfonyl)-1-oxa-8-azaspiro[4.5]decan-3-ylamino)-2-hydroxypropoxy)-N-methylbenzenesulfonamide] |
| 8.65 | CNS(=O)(=O)c1cccc(OC[C@@H](O)CNC2COC3(CCN(S(=O)(=O)c4ccc(C)c(C#N)c4)CC3)C2)c1 (stereo partly drawn) [Compound 198, 3-((2S)-3-(8-(3-cyano-4-methylphenylsulfonyl)-1-oxa-8-azaspiro[4.5]decan-3-ylamino)-2-hydroxypropoxy)-N-methylbenzenesulfonamide] |
| 15 | CNS(=O)(=O)c1cccc(OC[C@@H](O)CNC2COC3(CCN(S(=O)(=O)c4cccc(F)c4Cl)CC3)C2)c1 (stereo partly drawn) [Compound 199, 3-((2S)-3-(8-(2-chloro-3-fluorophenylsulfonyl)-1-oxa-8-azaspiro[4.5]decan-3-ylamino)-2-hydroxypropoxy)-N-methylbenzenesulfonamide] |
| 17.1 | CNS(=O)(=O)c1cccc(OC[C@@H](O)CNC2COC3(CCN(S(=O)(=O)c4cccc(F)c4F)CC3)C2)c1 (stereo partly drawn) [Compound 201, 3-((2S)-3-(8-(2,3-difluorophenylsulfonyl)-1-oxa-8-azaspiro[4.5]decan-3-ylamino)-2-hydroxypropoxy)-N-methylbenzenesulfonamide] |
| 12.1 | CNS(=O)(=O)c1cccc(OC[C@@H](O)CNC2COC3(CCN(S(=O)(=O)c4cc(F)ccc4C)CC3)C2)c1 (stereo partly drawn) [Compound 204, 3-((2S)-3-(8-(5-fluoro-2-methylphenylsulfonyl)-1-oxa-8-azaspiro[4.5]decan-3-ylamino)-2-hydroxypropoxy)-N-methylbenzenesulfonamide] |

Second part, the molecule before the results:

| SMILES | IC50 [nM] |
| --- | --- |
| CNS(=O)(=O)c1cccc(OC[C@@H](O)CNC2COC3(CCN(S(=O)(=O)c4ccc5c(c4)CC(=O)N5)CC3)C2)c1 (stereo partly drawn) [Compound 182, 3-((2S)-2-hydroxy-3-(8-(2-oxoindolin-5-ylsulfonyl)-1-oxa-8-azaspiro[4.5]decan-3-ylamino)propoxy)-N-methylbenzenesulfonamide] | 105 |
| CNS(=O)(=O)c1cccc(OC[C@@H](O)CN[C@@H]2COC3(CCN(S(=O)(=O)c4ccc5c(c4)CCCO5)CC3)C2)c1 [Compound 183, 3—((S)-3-((S)-8-(chroman-6-ylsulfonyl)-1-oxa-8-azaspiro[4.5]decan-3-ylamino)-2-hydroxypropoxy)-N-methylbenzenesulfonamide] | 16.4 |
| CNS(=O)(=O)c1cccc(OC[C@@H](O)CN[C@H]2COC3(CCN(S(=O)(=O)c4ccc5c(c4)CCCO5)CC3)C2)c1 [Compound 184, 3-((S)-3-((R)-8-(chroman-6-ylsulfonyl)-1-oxa-8-azaspiro[4.5]decan-3-ylamino)-2-hydroxypropoxy)-N-methylbenzenesulfonamide] | 11.9 |
| CNS(=O)(=O)c1cccc(OC[C@@H](O)CNC2COC3(CCN(S(=O)(=O)c4ccc(Cl)c5nonc45)CC3)C2)c1 (stereo partly drawn) [Compound 185, 3-((2S)-3-(8-(7-chlorobenzo[c][1,2,5]oxadiazol-4-ylsulfonyl)-1-oxa-8-azaspiro[4.5]decan-3-ylamino)-2-hydroxypropoxy)-N-methylbenzenesulfonamide] | 7.25 |
| CNS(=O)(=O)c1cccc(OC[C@@H](O)CNC2COC3(CCN(S(=O)(=O)c4ccc5c(c4)N(C)CCO5)CC3)C2)c1 (stereo partly drawn) [Compound 189, 3-((2S)-2-hydroxy-3-(8-(4-methyl-3,4-dihydro-2H-benzo[b][1,4]oxazin-6-ylsulfonyl)-1-oxa-8-azaspiro[4.5]decan-3-ylamino)propoxy)-N-methylbenzenesulfonamide] | 8.51 |
| CNS(=O)(=O)c1cccc(OC[C@@H](O)CNC2COC3(CCN(S(=O)(=O)c4ccc(-c5cc(C(F)(F)F)nn5C)s4)CC3)C2)c1 (stereo partly drawn) [Compound 191, 3-((2S)-2-hydroxy-3-(8-(5-(1-methyl-3-(trifluoromethyl)-1H-pyrazol-5-yl)thiophen-2-ylsulfonyl)-1-oxa-8-azaspiro[4.5]decan-3-ylamino)propoxy)-N-methylbenzenesulfonamide] | 80.9 |
| CNS(=O)(=O)c1cccc(OC[C@@H](O)CNC2COC3(CCN(S(=O)(=O)c4ccoc4)CC3)C2)c1 (stereo partly drawn) [Compound 192, 3-((2S)-3-(8-(furan-3-ylsulfonyl)-1-oxa-8-azaspiro[4.5]decan-3-ylamino)-2-hydroxypropoxy)-N-methylbenzenesulfonamide] | 28.3 |
| CNS(=O)(=O)c1cccc(OC[C@@H](O)CNC2COC3(CCN(S(=O)(=O)c4ccn(C)n4)CC3)C2)c1 (stereo partly drawn) [Compound 193, 3-((2S)-2-hydroxy-3-(8-(1-methyl-1H-pyrazol-3-ylsulfonyl)-1-oxa-8-azaspiro[4.5]decan-3-ylamino)propoxy)-N-methylbenzenesulfonamide] | 54.8 |
| CNS(=O)(=O)c1cccc(OC[C@@H](O)CNC2COC3(CCN(S(=O)(=O)c4cn(C)cn4)CC3)C2)c1 (stereo partly drawn) [Compound 194, 3-((2S)-2-hydroxy-3-(8-(1-methyl-1H-imidazol-4-ylsulfonyl)-1-oxa-8-azaspiro[4.5]decan-3-ylamino)propoxy)-N-methylbenzenesulfonamide] | 97.6 |
| CNS(=O)(=O)c1cccc(OC[C@@H](O)CNC2COC3(CCN(S(=O)(=O)c4ccc(OC)c(F)c4)CC3)C2)c1 (stereo partly drawn) [Compound 195, 3-((2S)-3-(8-(3-fluoro-4-methoxyphenylsulfonyl)-1-oxa-8-azaspiro[4.5]decan-3-ylamino)-2-hydroxypropoxy)-N-methylbenzenesulfonamide] | 23.4 |
| CNS(=O)(=O)c1cccc(OC[C@@H](O)CNC2COC3(CCN(S(=O)(=O)c4ccc(F)cc4Cl)CC3)C2)c1 (stereo partly drawn) [Compound 200, 3-((2S)-3-(8-(2-chloro-4-fluorophenylsulfonyl)-1-oxa-8-azaspiro[4.5]decan-3-ylamino)-2-hydroxypropoxy)-N-methylbenzenesulfonamide] | 22.2 |
| CNS(=O)(=O)c1cccc(OC[C@@H](O)CNC2COC3(CCN(S(=O)(=O)c4cc(F)ccc4Cl)CC3)C2)c1 (stereo partly drawn) [Compound 202, 3-((2S)-3-(8-(2-chloro-5-fluorophenylsulfonyl)-1-oxa-8-azaspiro[4.5]decan-3-ylamino)-2-hydroxypropoxy)-N-methylbenzenesulfonamide] | 10.8 |
| CNS(=O)(=O)c1cccc(OC[C@@H](O)CNC2COC3(CCN(S(=O)(=O)c4cc(S(C)(=O)=O)ccc4Cl)CC3)C2)c1 (stereo partly drawn) [Compound 203, 3-((2S)-3-(8-(2-chloro-5-(methylsulfonyl)phenylsulfonyl)-1-oxa-8-azaspiro[4.5]decan-3-ylamino)-2-hydroxypropoxy)-N-methylbenzenesulfonamide] | 14.9 |
| CNS(=O)(=O)c1cccc(OC[C@@H](O)CNC2COC3(CCN(S(=O)(=O)c4cc(F)ccc4F)CC3)C2)c1 (stereo partly drawn) [Compound 205, 3-((2S)-3-(8-(2,5-difluorophenylsulfonyl)-1-oxa-8-azaspiro[4.5]decan-3-ylamino)-2-hydroxypropoxy)-N-methylbenzenesulfonamide] | 14 |
| CNS(=O)(=O)c1cccc(OC[C@@H](O)CNC2COC3(CCN(S(=O)(=O)c4ccc(Cl)c(OC)c4)CC3)C2)c1 (stereo partly drawn) [Compound 206, 3-((2S)-3-(8-(4-chloro-3-methoxyphenylsulfonyl)-1-oxa-8-azaspiro[4.5]decan-3-ylamino)-2-hydroxypropoxy)-N-methylbenzenesulfonamide] | 9.62 |
| CNS(=O)(=O)c1cccc(OC[C@@H](O)CNC2COC3(CCN(S(=O)(=O)c4ccc(OC)c(Cl)c4)CC3)C2)c1 (stereo partly drawn) [Compound 207, 3-((2S)-3-(8-(3-chloro-4-methoxyphenylsulfonyl)-1-oxa-8-azaspiro[4.5]decan-3-ylamino)-2-hydroxypropoxy)-N-methylbenzenesulfonamide] | 8.79 |
| CNS(=O)(=O)c1cccc(OC[C@@H](O)CNC2COC3(CCN(S(=O)(=O)c4ccc(-c5cc(C(F)(F)F)on5)s4)CC3)C2)c1 (stereo partly drawn) [Compound 208, 3-((2S)-2-hydroxy-3-(8-(5-(5-(trifluoromethyl)isoxazol-3-yl)thiophen-2-ylsulfonyl)-1-oxa-8-azaspiro[4.5]decan-3-ylamino)propoxy)-N-methylbenzenesulfonamide] | 64.6 |
